Reference: US20220056043A1, “NITROGEN-CONTAINING FUSED CYCLIC COMPOUND, PREPARATION METHOD THEREFOR AND USE THEREOF” (SICHUAN KELUN-BIOTECH BIOPHARMACEUTICAL CO., LTD., priority 2019, published 2022)

Key:
THP1-defNLRP3 cells = test: Agonistic effect on the expression of IL-1β in NLRP3 deficient THP1 cells (THP1-defNLRP3) after PMA-induced differentiation (HTRF); format: cell-based, human; details: Homo sapiens, THP-1; IL-1β level, PMA-differentiated NLRP3 deficient THP1 cells, 6 hours; highest test concentration 30 μM; read-out: hNLRP3 EC50 (μM) (THP-1defNLRP3)
From the text: Experimental Example 2: Agonistic Effect of the Compound of the Invention on the Expression of IL-1β in NLRP3 Deficient THP1 Cells (THP1-defNLRP3 Cells) after PMA-Induced Differentiation
In this test, a HTRF detection method was used to test the effect of the compound of the invention on the level of IL-1β in THP1-defNLRP3 cells to evaluate the specificity of the agonistic effect of the compound on hNLRP3 inflammasome or hNLRP3 inflammasome pathway.
Reagents: as described in Experimental Example 1
Cell: THP1-defNLRP3 (InvivoGen)
Kit: IL-1β assay kit (CISBIO)
1) THP1-defNLRP3 cells in a logarithmic growth phase were seeded in a T75 culture flask at a density of 5×10^5 cells/well, and cultured in a cell incubator at 37° C., 5% CO2 for 24 hours, and then 1 μM PMA was used to induce THP1-defNLRP3 suspension cells to become adherent macrophages. The medium was RPMI 1640 containing 10% heat-inactivated FBS and 0.05 mM β-mercaptoethanol.
2) The cells were induced and cultured for 24 hours. Then the adherent cells were trypsinized and centrifuged at 1000 rpm for 5 min. The supernatant was removed, and the cells were resuspended to a density of 2×10^6 cells/mL in RPMI 1640 medium containing 2% heat-inactivated FBS. 50 μL/well of the cell resuspension was taken and spread on a 96-well plate such that the number of cells in each well was 1×10^5.
3) An appropriate amount of 10 mM DMSO solution of the compound to be tested was taken and diluted to a concentration of 2× test concentration with RPMI 1640 medium containing 2% heat-inactivated FBS. 50 μL/well of the dilution was added to the cells in the 96-well plate, and mixed well. The plate was incubated in a cell incubator at 37° C., 5% CO2 for 6 hours. The supernatant was collected, and the level of IL-1β was measured in accordance with the instructions of the IL-1β detection kit.
4) EC50 was fitted by the GraphPad software log(agonist) vs. response—Variable slope four-parameter method.

hTLR7 = molecular target: T1, hTLR7 (Homo sapiens, UniProt Q9NYK1); test: Agonistic effect on hTLR7, HEK-hTLR7-NF-κB-Luciferase reporter cells; format: cell-based; details: 16 hours
T1 construct: host or cells: HEK-hTLR7-NF-κB-Luciferase cells
T1 sequence (Q9NYK1 27-1049): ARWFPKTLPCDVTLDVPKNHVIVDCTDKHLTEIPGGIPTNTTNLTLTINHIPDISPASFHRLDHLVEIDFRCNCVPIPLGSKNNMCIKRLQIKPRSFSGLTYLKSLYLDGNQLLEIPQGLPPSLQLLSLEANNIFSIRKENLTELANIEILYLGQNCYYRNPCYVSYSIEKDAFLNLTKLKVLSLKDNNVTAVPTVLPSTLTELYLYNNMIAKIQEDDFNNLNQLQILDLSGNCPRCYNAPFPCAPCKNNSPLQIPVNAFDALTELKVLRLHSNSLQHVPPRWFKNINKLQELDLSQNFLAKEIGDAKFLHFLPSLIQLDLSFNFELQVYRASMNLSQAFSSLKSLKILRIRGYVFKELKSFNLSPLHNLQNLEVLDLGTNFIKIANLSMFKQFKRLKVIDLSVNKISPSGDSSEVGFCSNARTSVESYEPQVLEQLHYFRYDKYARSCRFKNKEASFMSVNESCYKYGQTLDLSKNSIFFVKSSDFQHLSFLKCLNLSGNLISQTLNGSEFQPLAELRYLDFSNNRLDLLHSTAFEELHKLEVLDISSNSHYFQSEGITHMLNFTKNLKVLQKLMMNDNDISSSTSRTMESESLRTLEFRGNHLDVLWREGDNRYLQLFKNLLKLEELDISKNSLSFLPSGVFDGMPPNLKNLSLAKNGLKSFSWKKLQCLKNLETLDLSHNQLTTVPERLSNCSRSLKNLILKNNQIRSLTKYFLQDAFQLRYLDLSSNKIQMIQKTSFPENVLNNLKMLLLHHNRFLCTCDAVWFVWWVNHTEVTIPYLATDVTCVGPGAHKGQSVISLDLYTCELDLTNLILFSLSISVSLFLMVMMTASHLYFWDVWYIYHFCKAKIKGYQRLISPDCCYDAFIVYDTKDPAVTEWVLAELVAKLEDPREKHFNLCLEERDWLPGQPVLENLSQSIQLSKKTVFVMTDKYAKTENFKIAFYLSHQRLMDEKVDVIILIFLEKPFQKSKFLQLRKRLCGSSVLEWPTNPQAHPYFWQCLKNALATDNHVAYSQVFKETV
From the text: Experimental Example 3: Agonistic Effect of the Compound of the Invention on hTLR7
In this test, the luciferase in HEK-hTLR7-NF-κB-reporter cells was detected to test the activating effect of the compound of the invention on TLR7 signaling pathway, so as to evaluate the specificity of the agonistic effect of the compound on NLRP3 pathway.
Reagents: DMEM (High glucose); FBS (fetal bovine serum) (Gibco); Bright-Glo™ Luciferase detection kit (Promega)
Cells: HEK-hTLR7-NF-κB-Luciferase gene cells (human TLR7 NF-κB-luciferase reporter gene cells) (Nanjing Cobioer)
1) The HEK-hTLR7-NF-κB-Luciferase cells in a logarithmic growth phase were trypsinized and resuspended in the medium to a concentration of 2×10^6 cells/mL. 50 μL/well of the cell resuspension was added to a 96-well plate such that the number of cells in each well was […]. An appropriate amount of 10 mM DMSO solution of the compound to be tested was taken and diluted to a concentration of 2× test concentration with the medium. 50 μL/well was added to the cells in the 96-well plate, and the 96-well plate was incubated in an incubator at 37° C. and 5% CO2 for 16 hours. The medium was DMEM (High glucose) containing 10% FBS.
2) After the cell incubation, 100 μL/well of Bright-Glo™ Luciferase detection reagent was added, and the mixture was incubated at room temperature for 5 minutes. Relative luciferase activity unit (RLU) was read using a microplate reader.
3) The EC50 of effect of the tested compound to stimulate hTLR7 was fitted by the GraphPad software log(agonist) vs. response—Variable slope four-parameter method.

EC50 (THP1-defNLRP3 cells) [µM]	EC50 (hTLR7) [µM]	Structure (SMILES)
> 30	> 100	C[C@@H]1CN(CCNc2cc(N)nc3cc(-c4ccn[nH]4)sc23)C[C@H](C)O1 [Compound 117, N^7-(2-((2S,6R)-2,6-dimethylmorpholino)ethyl)-2-(1H-pyrazol-5-yl)thieno[3,2-b]pyridine-5,7-diamine]
> 30	> 100	N#CC1(CNc2cc(N)nc3cc(-c4ccn[nH]4)sc23)CC1 [Compound 119]
> 30	> 100	Nc1cc(NCC2CCOCC2)c2sc(-c3ccn[nH]3)cc2n1 [Compound 120, 2-(1H-pyrazol-5-yl)-N^7-((tetrahydro-2H-pyran-4-yl)methyl)thieno[3,2-b]pyridine-5,7-diamine]
> 30	> 100	Cc1c(-c2cc[nH]n2)sc2c(NCC3CC3)cc(N)nc12 [Compound 156]
> 30	> 100	Cc1c(-c2ccn[nH]2)sc2c(NC[C@@H]3CCCO3)cc(N)nc12 [Compound 157]
> 30	> 100	Cc1c(-c2cc[nH]n2)sc2c(NCCCO)cc(N)nc12 [Compound 159]
> 30	> 100	CN1CCN(c2cc(N)nc3cc(-c4ccn[nH]4)sc23)CC1 [Compound 161]
> 30	> 100	Nc1cc(N2CCN(C3CCCCC3)CC2)c2sc(-c3ccn[nH]3)cc2n1 [Compound 167]
> 30	> 100	C[C@H]1CN(c2cc(N)nc3cc(-c4ccn[nH]4)sc23)C[C@H](C)O1 [Compound 168]
> 30	> 100	C[C@@H]1CN(c2cc(N)nc3cc(-c4ccn[nH]4)sc23)C[C@H](C)O1 [Compound 169]
> 30	> 100	Nc1cc(N2CCC(O)CC2)c2sc(-c3ccn[nH]3)cc2n1 [Compound 172]
> 30	> 100	Nc1cc(N2CCN(c3ccccc3)CC2)c2sc(-c3ccn[nH]3)cc2n1 [Compound 174]
> 30	> 100	Nc1cc(N2CCNCC2)c2sc(-c3ccn[nH]3)cc2n1 [Compound 175]
> 30	> 100	COC1CCN(c2cc(N)nc3cc(-c4ccn[nH]4)sc23)C1 (stereo not shown) [Compound 180]
> 30	> 100	Nc1cc(N2CC[C@@H](O)C2)c2sc(-c3ccn[nH]3)cc2n1 [Compound 181]
> 30	> 100	Nc1cc(N[C@H]2C[C@H]2CO)c2sc(-c3ccn[nH]3)cc2n1 [Compound 182s]

Second part, the compound before the results:

Structure (SMILES)	EC50 (THP1-defNLRP3 cells) [µM]	EC50 (hTLR7) [µM]
CC1(CNc2cc(N)nc3cc(-c4ccn[nH]4)sc23)COC1 [Compound 121, N^7-((3-methyloxetan-3-yl)methyl)-2-(1H-pyrazol-5-yl)thieno[3,2-b]pyridine-5,7-diamine]	> 30	> 100
CC(CO)(CO)CNc1cc(N)nc2cc(-c3ccn[nH]3)sc12 [Compound 122]	> 30	> 100
Cc1c(-c2cc[nH]n2)sc2c(NCCN3CCOCC3)cc(N)nc12 [Compound 153]	> 30	> 100
Nc1cc(N2CCN(C3CCCC3)CC2)c2sc(-c3ccn[nH]3)cc2n1 [Compound 160]	> 30	> 100
CC(C)N1CCN(c2cc(N)nc3cc(-c4ccn[nH]4)sc23)CC1 [Compound 162]	> 30	> 100
Nc1cc(N2CCN(C3CC3)CC2)c2sc(-c3ccn[nH]3)cc2n1 [Compound 163]	> 30	> 100
CS(=O)(=O)N1CCN(c2cc(N)nc3cc(-c4ccn[nH]4)sc23)CC1 [Compound 164]	> 30	> 100
COC1(C)CCN(c2cc(N)nc3cc(-c4ccn[nH]4)sc23)CC1 [Compound 165]	> 30	> 100
Nc1cc(N2CCCC(O)C2)c2sc(-c3ccn[nH]3)cc2n1 (stereo not shown) [Compound 166]	> 30	> 100
Nc1cc(N2CCOCC2)c2sc(-c3ccn[nH]3)cc2n1 [Compound 170]	> 30	> 100
CC1(C)CN(c2cc(N)nc3cc(-c4ccn[nH]4)sc23)CCO1 [Compound 171]	> 30	> 100
CC1(C)CCN(c2cc(N)nc3cc(-c4ccn[nH]4)sc23)CC1 [Compound 173]	> 30	> 100
Nc1cc(N2CC3CC(C2)N3)c2sc(-c3ccn[nH]3)cc2n1 [Compound 176]	> 30	> 100
C[C@@H]1COCCN1c1cc(N)nc2cc(-c3ccn[nH]3)sc12 [Compound 177]	> 30	> 100
Nc1cc(N2CCN(C=O)CC2)c2sc(-c3ccn[nH]3)cc2n1 [Compound 178]	> 30	> 100
Nc1cc(N2CC3CC(C2)N3C=O)c2sc(-c3ccn[nH]3)cc2n1 [Compound 179]	> 30	> 100
